Structures are written as SMILES. *1 amine or outer side, *2 acyl side, *3 side chain or, on linkers, in order; H or OH if unused. Where a SMILES comes first, the peptide text is derived from it. Bridges are numbered along the chain shown (N, C = ends). [ ]: non-standard residue; d: D form. The star is where a group is joined. ξ: configuration not given here. Phe(3-CF3) = N[C@@H](Cc1cccc(C(F)(F)F)c1)C(=O)O; Ala(morpholin-4-yl) = N[C@@H](CN1CCOCC1)C(=O)O; Phe(4-COOH) = N[C@@H](Cc1ccc(C(=O)O)cc1)C(=O)O; Bip = N[C@@H](Cc1ccc(-c2ccccc2)cc1)C(=O)O; γGlu = O=C(O)[C@H](CCC(=O)[*:2])N[*:1]; NH(CH2)12COOH = O=C(O)CCCCCCCCCCCCN*; ξγGlu = O=C(O)C(CCC(=O)[*:2])N[*:1]; Val(3-OH) = CC(C)(O)[C@H](N)C(=O)O; Cha = N[C@@H](CC1CCCCC1)C(=O)O; Cit = NC(=O)NCCC[C@H](N)C(=O)O; Carboxymethyl = O=C(O)C*; NMeA = CN[C@@H](C)C(=O)O; Dab = NCC[C@H](N)C(=O)O; AEEA = NCCOCCOCC(=O)O

T1 sequence (Q15116 25-288): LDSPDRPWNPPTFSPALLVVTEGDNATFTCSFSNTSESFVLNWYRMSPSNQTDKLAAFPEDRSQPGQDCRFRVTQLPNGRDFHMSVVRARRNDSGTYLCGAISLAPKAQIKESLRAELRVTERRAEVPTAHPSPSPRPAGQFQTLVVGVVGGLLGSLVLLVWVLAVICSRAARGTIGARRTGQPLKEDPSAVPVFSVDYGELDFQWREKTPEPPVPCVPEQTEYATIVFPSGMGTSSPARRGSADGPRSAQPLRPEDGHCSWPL

This assay has as its target T1, PD-1/PD-L1 interaction (PE-labeled human PD-L1-Ig binding to Jurkat cell line over-expressing human PD-1) (Homo sapiens, UniProt Q15116).
T1 construct: expressed in transfected cells; host or cells: Jurkat
As to the kind of experiment: Jurkat-PD-1 Cell Binding High-Content Screening Assay (CBA). As to conditions: Jurkat-hPD-1 cells, PE-labeled PD-L1-Ig 20 nM final; read-out: Jurkat HPD1 PDL1 IC50. An outline of the steps:
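Binding of 20 nM (final) PE-tagged PD-L1-Ig to compound-pretreated Jurkat-hPD-1 cells was measured by high-content imaging after 1 h. Pretreatment ran 2 h at 37 °C in DMEM with 10% fetal calf serum.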
On to `CC(C)C[C@H]1NC(=O)[C@H](C)N(C)C(=O)[C@H](CCCNC(N)=O)NC(=O)[C@H](Cc2ccc(-c3ccccc3)cc2)NC(=O)[C@H](Cc2ccc(C(=O)O)cc2)NC(=O)[C@H](Cc2cccc(C(F)(F)F)c2)NC(=O)[C@H](CC(=O)O)NC(=O)[C@H](Cc2ccc(OCC(=O)O)cc2)NC(=O)[C@H](CN2CCOCC2)NC(=O)CSC[C@@H](C(=O)N[C@@H](CCN)C(=O)NCCCCCCCCCCCCC(=O)O)NC(=O)[C@H](CO)NC(=O)[C@H](C(C)(C)O)NC(=O)[C@H](CC2CCCCC2)NC(=O)[C@H](CCN)NC1=O` [Example 1156] ({CH2CO}-[Ala(morpholin-4-yl)]Y(Carboxymethyl)D[Phe(3-CF3)][Phe(4-COOH)][Bip][Cit][NMeA][dL][Dab][Cha][Val(3-OH)]SC[Dab]-{NH(CH2)12COOH}; thioether N-14), for which the IC50 came out at 15.1 nM.

With `CC(=O)NCCCC[C@@H]1NC(=O)[C@H](C(C)(C)O)NC(=O)[C@H](CC2CCCCC2)NC(=O)[C@H](CCN)NC(=O)[C@@H](CC(C)C)NC(=O)[C@H](C)N(C)C(=O)[C@H](CCCNC(N)=O)NC(=O)[C@H](Cc2ccc(-c3ccccc3)cc2)NC(=O)[C@H](Cc2ccc(C(=O)O)cc2)NC(=O)[C@H](Cc2cccc(C(F)(F)F)c2)NC(=O)[C@H](CC(=O)O)NC(=O)[C@H](Cc2ccc(OCC(=O)O)cc2)NC(=O)[C@H](CN2CCOCC2)NC(=O)CSC[C@@H](C(=O)N[C@@H](CCN)C(=O)NCCCCCCCCCCCCC(=O)O)NC1=O` [Example 1157] ({CH2CO}-[Ala(morpholin-4-yl)]Y(Carboxymethyl)D[Phe(3-CF3)][Phe(4-COOH)][Bip][Cit][NMeA][dL][Dab][Cha][Val(3-OH)]K(Ac)C[Dab]-{NH(CH2)12COOH}; thioether N-14), the IC50 is 4.6 nM. Turning to `CC(C)C[C@H]1NC(=O)[C@H](C)N(C)C(=O)[C@H](CCCNC(N)=O)NC(=O)[C@H](Cc2ccc(-c3ccccc3)cc2)NC(=O)[C@H](Cc2ccc(C(=O)O)cc2)NC(=O)[C@H](Cc2cccc(C(F)(F)F)c2)NC(=O)[C@H](CC(=O)O)NC(=O)[C@H](Cc2ccc(OCC(=O)O)cc2)NC(=O)[C@H](Cc2ccc(C(=O)O)cc2)NC(=O)CSC[C@@H](C(=O)N[C@@H](CCN)C(=O)NCCOCCOCC(=O)N[C@@H](CCC(=O)NCCOCCOCC(=O)NCCCCCCCCCCCCC(=O)O)C(=O)O)NC(=O)[C@H](CCC(=O)O)NC(=O)[C@H](C(C)C)NC(=O)[C@H](CC2CCCCC2)NC(=O)[C@H](CCN)NC1=O` [Example 1158] ({CH2CO}-[Phe(4-COOH)]Y(Carboxymethyl)D[Phe(3-CF3)][Phe(4-COOH)][Bip][Cit][NMeA][dL][Dab][Cha]VEC[Dab][AEEA][γGlu][AEEA]-{NH(CH2)12COOH}; thioether N-14), the IC50 is 50.3 nM.

Regarding `CC(=O)NCCCC[C@@H]1NC(=O)[C@H](C(C)(C)O)NC(=O)[C@H](CC2CCCCC2)NC(=O)[C@H](CCN)NC(=O)[C@@H](CC(C)C)NC(=O)[C@H](C)N(C)C(=O)[C@H](CCCNC(N)=O)NC(=O)[C@H](Cc2ccc(-c3ccccc3)cc2)NC(=O)[C@H](Cc2ccc(C(=O)O)cc2)NC(=O)[C@H](Cc2cccc(C(F)(F)F)c2)NC(=O)[C@H](CC(=O)O)NC(=O)[C@H](Cc2ccc(OCC(=O)O)cc2)NC(=O)[C@H](Cc2ccc(C(=O)O)cc2)NC(=O)CSC[C@@H](C(=O)N[C@@H](CCN)C(=O)NCCOCCOCC(=O)N[C@@H](CCC(=O)NCCOCCOCC(=O)NCCCCCCCCCCCCC(=O)O)C(=O)O)NC1=O` [Example 1159] ({CH2CO}-[Phe(4-COOH)]Y(Carboxymethyl)D[Phe(3-CF3)][Phe(4-COOH)][Bip][Cit][NMeA][dL][Dab][Cha][Val(3-OH)]K(Ac)C[Dab][AEEA][γGlu][AEEA]-{NH(CH2)12COOH}; thioether N-14), the half-maximal inhibitory concentration (IC50) amounted to 46.4 nM. With `CC(C)C[C@H]1NC(=O)[C@H](C)N(C)C(=O)[C@H](Cc2ccc(C(=O)O)cc2)NC(=O)[C@H](Cc2ccc(-c3ccccc3)cc2)NC(=O)[C@H](Cc2ccc(C(=O)O)cc2)NC(=O)[C@H](Cc2cccc(C(F)(F)F)c2)NC(=O)[C@H](CC(=O)O)NC(=O)[C@H](Cc2ccc(OCC(=O)O)cc2)NC(=O)[C@H](Cc2ccc(C(=O)O)cc2)NC(=O)CSC[C@@H](C(=O)N[C@@H](CCN)C(=O)NCCOCCOCC(=O)N[C@@H](CCC(=O)NCCOCCOCC(=O)NCCCCCCCCCCCCC(=O)O)C(=O)O)NC(=O)[C@H](CCC(=O)O)NC(=O)[C@H](C(C)C)NC(=O)[C@H](CC2CCCCC2)NC(=O)[C@H](CCN)NC1=O` [Example 1160] ({CH2CO}-[Phe(4-COOH)]Y(Carboxymethyl)D[Phe(3-CF3)][Phe(4-COOH)][Bip][Phe(4-COOH)][NMeA][dL][Dab][Cha]VEC[Dab][AEEA][γGlu][AEEA]-{NH(CH2)12COOH}; thioether N-14), the IC50 worked out at 101 nM. Consider `CC(C)C[C@H]1NC(=O)[C@H](C)N(C)C(=O)[C@H](Cc2ccc(C(=O)O)cc2)NC(=O)[C@H](Cc2ccc(-c3ccccc3)cc2)NC(=O)[C@H](Cc2ccc(C(=O)O)cc2)NC(=O)[C@H](Cc2cccc(C(F)(F)F)c2)NC(=O)[C@H](CC(=O)O)NC(=O)[C@H](Cc2ccc(OCC(=O)O)cc2)NC(=O)[C@H](Cc2ccc(C(=O)O)cc2)NC(=O)CSC[C@@H](C(=O)N[C@@H](CCN)C(=O)NCCOCCOCC(=O)N[C@@H](CCC(=O)NCCOCCOCC(=O)NCCCCCCCCCCCCC(=O)O)C(=O)O)NC(=O)[C@H](CO)NC(=O)[C@H](C(C)(C)O)NC(=O)[C@H](CC2CCCCC2)NC(=O)[C@H](CCN)NC1=O` [Example 1161] ({CH2CO}-[Phe(4-COOH)]Y(Carboxymethyl)D[Phe(3-CF3)][Phe(4-COOH)][Bip][Phe(4-COOH)][NMeA][dL][Dab][Cha][Val(3-OH)]SC[Dab][AEEA][γGlu][AEEA]-{NH(CH2)12COOH}; thioether N-14), for which the IC50 was 81.4 nM. As for `COC[C@@H]1NC(=O)CSC[C@@H](C(=O)N[C@@H](CCN)C(=O)NCCOCCOCC(=O)N[C@@H](CCC(=O)NCCOCCOCC(=O)NCCCCCCCCCCCCC(=O)O)C(=O)O)NC(=O)[C@H](CCC(=O)O)NC(=O)[C@H](C(C)C)NC(=O)[C@H](CC2CCCCC2)NC(=O)[C@H](CCN)NC(=O)[C@@H](CC(C)C)NC(=O)[C@H](C)N(C)C(=O)[C@H](CCC(N)=O)NC(=O)[C@H](Cc2ccc(-c3ccccc3)cc2)NC(=O)[C@H](Cc2ccc(C(=O)O)cc2)NC(=O)[C@H](Cc2cccc(C(F)(F)F)c2)NC(=O)[C@H](CC(=O)O)NC(=O)[C@H](Cc2ccc(OCC(=O)O)cc2)NC1=O` [Example 1163] ({CH2CO}-S(Me)Y(Carboxymethyl)D[Phe(3-CF3)][Phe(4-COOH)][Bip]Q[NMeA][dL][Dab][Cha]VEC[Dab][AEEA][γGlu][AEEA]-{NH(CH2)12COOH}; thioether N-14), the IC50 was determined as 15.2 nM. As for `COC[C@@H]1NC(=O)CSC[C@@H](C(=O)N[C@@H](CCN)C(=O)NCCOCCOCC(=O)N[C@@H](CCC(=O)NCCOCCOCC(=O)NCCCCCCCCCCCCC(=O)O)C(=O)O)NC(=O)[C@H](CO)NC(=O)[C@H](C(C)(C)O)NC(=O)[C@H](CC2CCCCC2)NC(=O)[C@H](CCN)NC(=O)[C@@H](CC(C)C)NC(=O)[C@H](C)N(C)C(=O)[C@H](CCC(N)=O)NC(=O)[C@H](Cc2ccc(-c3ccccc3)cc2)NC(=O)[C@H](Cc2ccc(C(=O)O)cc2)NC(=O)[C@H](Cc2cccc(C(F)(F)F)c2)NC(=O)[C@H](CC(=O)O)NC(=O)[C@H](Cc2ccc(OCC(=O)O)cc2)NC1=O` [Example 1164] ({CH2CO}-S(Me)Y(Carboxymethyl)D[Phe(3-CF3)][Phe(4-COOH)][Bip]Q[NMeA][dL][Dab][Cha][Val(3-OH)]SC[Dab][AEEA][γGlu][AEEA]-{NH(CH2)12COOH}; thioether N-14), the IC50 stood at 8.9 nM.

For the molecule `COC[C@@H]1NC(=O)CSC[C@@H](C(=O)N[C@@H](CCN)C(=O)NCCOCCOCC(=O)N[C@@H](CCC(=O)NCCOCCOCC(=O)NCCCCCCCCCCCCC(=O)O)C(=O)O)NC(=O)[C@H](CCCCNC(C)=O)NC(=O)[C@H](C(C)(C)O)NC(=O)[C@H](CC2CCCCC2)NC(=O)[C@H](CCN)NC(=O)[C@@H](CC(C)C)NC(=O)[C@H](C)N(C)C(=O)[C@H](CCC(N)=O)NC(=O)[C@H](Cc2ccc(-c3ccccc3)cc2)NC(=O)[C@H](Cc2ccc(C(=O)O)cc2)NC(=O)[C@H](Cc2cccc(C(F)(F)F)c2)NC(=O)[C@H](CC(=O)O)NC(=O)[C@H](Cc2ccc(OCC(=O)O)cc2)NC1=O` [Example 1165] ({CH2CO}-S(Me)Y(Carboxymethyl)D[Phe(3-CF3)][Phe(4-COOH)][Bip]Q[NMeA][dL][Dab][Cha][Val(3-OH)]K(Ac)C[Dab][AEEA][γGlu][AEEA]-{NH(CH2)12COOH}; thioether N-14), the IC50 came out at 21.8 nM. Turning to `COC[C@@H]1NC(=O)CSC[C@@H](C(=O)N[C@@H](CCN)C(=O)NCCOCCOCC(=O)NC(CCC(=O)NCCOCCOCC(=O)NCCCCCCCCCCCCC(=O)O)C(=O)O)NC(=O)[C@H](CCCCNC(C)=O)NC(=O)[C@H](C(C)(C)O)NC(=O)[C@H](CC2CCCCC2)NC(=O)[C@H](CCN)NC(=O)[C@@H](CC(C)C)NC(=O)[C@H](C)N(C)C(=O)[C@H](CCCNC(N)=O)NC(=O)[C@H](Cc2ccc(-c3ccccc3)cc2)NC(=O)[C@H](Cc2ccc(C(=O)O)cc2)NC(=O)[C@H](Cc2cccc(C(F)(F)F)c2)NC(=O)[C@H](CC(=O)O)NC(=O)[C@H](Cc2ccc(OCC(=O)O)cc2)NC1=O` (stereo partly drawn) [Example 1168] ({CH2CO}-S(Me)Y(Carboxymethyl)D[Phe(3-CF3)][Phe(4-COOH)][Bip][Cit][NMeA][dL][Dab][Cha][Val(3-OH)]K(Ac)C[Dab][AEEA][ξγGlu][AEEA]-{NH(CH2)12COOH}; thioether N-14), the IC50 was 14.8 nM.

A word on the IC50: it is the concentration needed to halve the response being measured.
